Data: patent publication US20110173718A1, “HERBICIDE TOLERANT PLANTS” (SYNGENTA CROP PROTECTION, INC., priority 2008, published 2011)

Experiments:
[1] = tested on: HST in spinach chloroplast extract; assay: HST assay (TLC, MFBQ formed), spinach chloroplast extract; type: biochemical
[2] = tested on: tobacco (var Samsun) plantlets on liquid culture medium; assay: HST + HPPD herbicide effects on tobacco seedlings on liquid culture medium; type: in vivo; settings: for % bleaching, +mesotrione 0.001 ppm / % bleaching, HST herbicide alone: liquid culture medium, 14 DAT
Procedure: In an alternative herbicide test procedure tobacco (var Samsun) plantlets germinated aseptically in agar made up in 1/3 strength Murashige and Skoog salts medium are transferred after 4 d to float on top of 2.9 ml of sterile liquid culture medium (half strength Murashige and Skoog medium containing 30 mM sucrose) in wells of 12 well plates. Test compounds are added at various doses and bleaching damage is assessed after 14-20 DAT. The plantlets are kept covered under clear perspex and grown at 18° C. (night) and 24° C. (day) under a 1611 day (˜500-900 umol/m^2), 8 h darkness regime Plantlets continue to grow and produce new tissue over the 14-20 DAT period but are bleached and grow less in the presence of controlling concentrations of herbicide.

[3] = tested on: tobacco plants expressing Pseudomonas fluorescens HPPD; assay: Glasshouse spray test, Pseudomonas HPPD transgenic tobacco; type: in vivo; settings: 25 gai/ha; C2 line (Pseudomonas HPPD, T2), individual plants
From the text: Tobacco plants expressing the wild-type HPPD gene of Pseudomonas fluorescens strain 87-79 under operable control of the double enhanced 35S CMV promoter region, Nos3′ terminator and TMV translational enhancer were provided as detailed in Example 4 of WO0246387.
Seed of wild-type tobacco plants, C2 tobacco plants and of the T1 progeny of a further Arabidopsis-HST expressing tobacco line, D2 were planted out in 3 inch pots, grown on, sprayed with compounds 1.1, 2.30 and 3.6 at the rates shown in table 5. Percent damage scores were assessed at 7 DAT. Aside from the presumptive non-transgenic segregants the D2 line containing the Arabidopis HST expression construct offered the highest level of tolerance to the two HST herbicides with the Psuedomonas HPPD, C2 line, offering only marginal tolerance under the conditions of this test.
Transgenic lines of tobacco, soyabean and corn etc. can be engineered to express various heterologous HPPDs derived from, for example Avena (SEQ ID #26), Wheat (SEQ ID #27), Pseudomonas fluorescens (SEQ ID # 25) and Shewanella colwelliana (SEQ ID #28) as, for example, described in WO 02/46387.
Single copy events amongst the T1 plant lines are identified by their 3:1 segregation ratio (wrt kanamycin and or herbicide) and by quantitative RT-PCR. Seed from the thus selected T1 tobacco (var Samsun) lines are sown in 3 inch diameter pots containing 50% peat, 50% John Innes soil no 3. After growth to the 3 leaf stage, plants are sprayed, as described above, in order to test for herbicide tolerance relative to like-treated non-transgenic tobacco plants.
Control tobacco plants and transgenic T1 plants expressing either the Pseudomonas or the wheat HPPD gene are sprayed at 37, 111, 333 and 1000 g/ha rates of HST inhibitors and, for example, compound 2.3.
Plants are assessed and scored for % damage at 16 DAT.

## Oc1c(Cl)c(F)nc(F)c1Cl [Compound 1.1, haloxydine]
[1]; 25 ppm, TLC, estimated amount of MFBQ formed, relative to controls
  Spinach chloroplast extract % I at 25 ppm: 70%
[1]; final concentration 500 ppm
  inhibition of the HST reaction: completely inhibit
[2]; 0.19 ppm + mesotrione 0.001 ppm
  % bleaching, +mesotrione 0.001 ppm: 100%
[2]; 0.19 ppm
  % bleaching, HST herbicide alone: 50%
[2]; 0.58 ppm + mesotrione 0.001 ppm
  % bleaching, +mesotrione 0.001 ppm: 100%
[2]; 0.58 ppm
  % bleaching, HST herbicide alone: 90%
[2]; 1.7 ppm + mesotrione 0.001 ppm
  % bleaching, +mesotrione 0.001 ppm: 100%
[2]; 1.7 ppm
  % bleaching, HST herbicide alone: 100%
[2]; 5.2 ppm + mesotrione 0.001 ppm
  % bleaching, +mesotrione 0.001 ppm: 100%
[2]; 5.2 ppm
  % bleaching, HST herbicide alone: 100%
[2]; 16 ppm + mesotrione 0.001 ppm
  % bleaching, +mesotrione 0.001 ppm: 100%
[2]; 16 ppm
  % bleaching, HST herbicide alone: 100%
[2]; 47 ppm + mesotrione 0.001 ppm
  % bleaching, +mesotrione 0.001 ppm: 100%
[2]; 47 ppm
  % bleaching, HST herbicide alone: 100%
[2]; liquid culture, repeat experiments
  effect of low amounts of mesotrione on the injury down the dose response: clear synergistic effects
[3]
  % damage at 7 DAT: 75%
